Source: PubChem BioAssay AID1963854 (Molecular Pharmacology Branch, DTP, NCI, 2024)
Values joined by “and” are separate entries in the source; they are usually repeats but may differ in a detail not shown here. Equal entries are not always repeated.

Test system: 186277-243-T-J2-PDC complex spheroid viability
Test: Anticancer human tumor 186277-243-T-J2-PDC patient-derived colon adenocarcinoma cell line growth inhibition [POLQ]
Conditions: for viability, T/C: stronger effect = lower value
Method: Multicellular complex tumor spheroid response to Polymerase (POL) inhibitors (novobiocin, ART-558, RP6685) in combination with a variety of drugs and investigational agents in selected tumor cell lines
The POL inhibitors (novobiocin, ART-558, and RP6685) were evaluated both individually and in combination with standard of care and investigational anticancer small molecules within a complex spheroid model of solid tumors. . Complex spheroids include a stromal component modeled by human endothelial cells (HUVEC) and fibroblasts modeled by human mesenchymal stem cells (MSCs). The concentration ranges selected for each drug and investigational agent were based upon clinically achievable concentrations if the clinical Cmax of the agent was known.
Compounds. The drugs and investigational agents: novobiocin (NSC847541), ART-558 (NSC835418), RP-6685 (NSC848927), peposertib (NSC802822), ceralasertib (NSC780249), elimusertib (NSC800525), camonsertib (NSC841442), AZD-1390 (NSC803789), olaparib (NSC753686), talazoparib (NSC767125), rucaparib (NSC756644), sotorasib (NSC818433), MRTX-1133 (NSC836407), SN-38 (NSC673596), topotecan (NSC609699), epotoside (NSC141540), doxorubicin (NSC123127), gemcitabine (NSC613327), 5-fluorouracil (NSC19893), paclitaxel (NSC125973), vemurafenib (NSC761431), MSA-2 (NSC828583), SN-011 (NSC837082), adavosertib (NSC754352), prexasertib (NSC758257), carboplatin (NSC241240) and oxaliplatin (NSC266046), were obtained from the National Cancer Institute (NCI) Developmental Therapeutics Program Chemical Repository (21). The FDA-approved anticancer drug set is available from the Developmental Therapeutics Program at https://dtp.cancer.gov/organization/dscb/obtaining/. […] The stock solutions were prepared in dimethyl sulfoxide (DMSO, Sigma-Aldrich, St. Louis, MO, cat. D2650), except for the platinum compounds which were prepared in saline (Quality Biological, Gaithersburg, MD, cat. 114-055-101), at 800-fold the tested concentration and stored at -70 degrees C prior to their use. All drugs and investigational agents were tested over a range starting from a high concentration at or near the clinical Cmax and decreasing in half-log increments. If the clinical Cmax for an agent had not been determined, the highest concentration tested was 10 microM, except for SN-38, which was tested at a high concentration of 1 microM.
Cell Culture. All cells were maintained in an incubator at 37 degrees C and 5% CO2 with 95% humidity. The PDC lines were cultured according to standard operating procedures established by the NCI PDMR (https://pdmr.cancer.gov). Table 3 of the manuscript, lists the cell lines along with the number of the three cell types plated to form the mct-spheroids and media for tumor cell growth. After thawing, all PDC lines, except 997537-175-T-J1-PDC and 415267-285-R-J2-PDC, were cultured in Matrigel-coated flasks prepared with a working solution of 1X Ham's F-12 nutrient mix, without supplementation (Thermo Fisher Scientific, cat. 11765054), 100 U/mL penicillin-streptomycin (Thermo Fisher Scientific, cat. 15140122), and 2.5% Matrigel (Corning Inc., Corning, NY, cat. 354248) for the first three passages. The two PDC lines 997537-175-T-J1-PDC and 415267-285-R-J2-PDC were cultured on uncoated flasks. The 857933-349-R-J2-PDC line was cultured in 6C/Colon 1B media containing advanced DMEM/F-12 (Thermo Fisher Scientific, cat. 12634028), 10 mM HEPES (Thermo Fisher Scientific, cat. 15630080), 1X GlutaMAX supplement (Thermo Fisher Scientific, cat. 35050061), 0.1 mg/mL primocin (InvivoGen, San Diego, CA, cat. ant-pm-2), 10% defined fetal bovine serum, heat inactivated (HyClone Laboratories Inc., Logan, UT, cat. SH30070.03HI), 50% L-WRN conditioned media (ATCC, cat. CRL-3276), 1.25 mM N-Acetyl-L-cysteine (Sigma-Aldrich, cat. A9165), 10 mM nicotinamide (Sigma-Aldrich, cat. N0636), 1X B-27 supplement (Thermo Fisher Scientific, cat. 17504044), 1X N-2 supplement (Thermo Fisher Scientific, cat. […]

[1] = curve of first compound, second compound 0.0316 µM
[2] = curve of first compound, second compound 0.1 µM
[3] = curve of first compound, second compound 0.316 µM
[4] = curve of first compound, second compound 1 µM
[5] = curve of first compound, second compound 3.16 µM
[6] = curve of first compound, second compound 10 µM
[7] = second compound 0.0316 µM, first compound 0.0316 µM
[8] = second compound 0.0316 µM, first compound 0.1 µM
[9] = second compound 0.0316 µM, first compound 0.316 µM
[10] = second compound 0.0316 µM, first compound 1 µM
[11] = second compound 0.0316 µM, first compound 3.16 µM
[12] = second compound 0.0316 µM, first compound 10 µM
[13] = second compound 0.1 µM, first compound 0.0316 µM
[14] = second compound 0.1 µM, first compound 0.1 µM
[15] = second compound 0.1 µM, first compound 0.316 µM
[16] = second compound 0.1 µM, first compound 1 µM
[17] = second compound 0.1 µM, first compound 3.16 µM
[18] = second compound 0.1 µM, first compound 10 µM
[19] = second compound 0.316 µM, first compound 0.0316 µM
[20] = second compound 0.316 µM, first compound 0.1 µM
[21] = second compound 0.316 µM, first compound 0.316 µM
[22] = second compound 0.316 µM, first compound 1 µM
[23] = second compound 0.316 µM, first compound 3.16 µM
[24] = second compound 0.316 µM, first compound 10 µM
[25] = second compound 1 µM, first compound 0.0316 µM
[26] = second compound 1 µM, first compound 0.1 µM
[27] = second compound 1 µM, first compound 0.316 µM
[28] = second compound 1 µM, first compound 1 µM
[29] = second compound 1 µM, first compound 3.16 µM
[30] = second compound 1 µM, first compound 10 µM
[31] = second compound 3.16 µM, first compound 0.0316 µM
[32] = second compound 3.16 µM, first compound 0.1 µM
[33] = second compound 3.16 µM, first compound 0.316 µM
[34] = second compound 3.16 µM, first compound 1 µM
[35] = second compound 3.16 µM, first compound 3.16 µM
[36] = second compound 3.16 µM, first compound 10 µM
[37] = second compound 10 µM, first compound 0.0316 µM
[38] = second compound 10 µM, first compound 0.1 µM
[39] = second compound 10 µM, first compound 0.316 µM
[40] = second compound 10 µM, first compound 1 µM
[41] = second compound 10 µM, first compound 3.16 µM
[42] = second compound 10 µM, first compound 10 µM
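Further: spheroids exposed to compounds for seven days.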
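Wherever viability, T/C is given: 100% = DMSO vehicle control viability.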

CCc1cc2c(N3CCc4c(cc(Cn5ccnc5)cc4-c4cn(C)nc4C(F)(F)F)C3=O)ccnc2c(OC)n1 + COC1C(OC(N)=O)C(O)C(Oc2ccc3c(O)c(NC(=O)c4ccc(O)c(CC=C(C)C)c4)c(=O)oc3c2C)OC1(C)C
IC50 [1]: > 10 µM | IC50 [2]: > 10 µM | IC50 [3]: > 10 µM | IC50 [4]: > 10 µM | IC50 [5]: > 10 µM | IC50 [6]: > 10 µM | viability, T/C [7]: 94.6% | viability, T/C [8]: 94% | viability, T/C [9]: 116% | viability, T/C [10]: 87.8% | viability, T/C [11]: 92.6% | viability, T/C [12]: 74.9% | viability, T/C [13]: 97.5% | viability, T/C [14]: 95.2% | viability, T/C [15]: 111% | viability, T/C [16]: 104% | viability, T/C [17]: 86% | viability, T/C [18]: 74.3% | viability, T/C [19]: 83.3% | viability, T/C [20]: 105% | viability, T/C [21]: 98% | viability, T/C [22]: 87.8% | viability, T/C [23]: 89.7% | viability, T/C [24]: 73.3% | viability, T/C [25]: 94.1% | viability, T/C [26]: 103% | viability, T/C [27]: 86.5% | viability, T/C [28]: 106% | viability, T/C [29]: 107% | viability, T/C [30]: 74.8% | viability, T/C [31]: 107% | viability, T/C [32]: 100% | viability, T/C [33]: 99.1% | viability, T/C [34]: 93.1% | viability, T/C [35]: 89.1% | viability, T/C [36]: 75.5% | viability, T/C [37]: 101% | viability, T/C [38]: 99.7% | viability, T/C [39]: 107% | viability, T/C [40]: 101% | viability, T/C [41]: 109% | viability, T/C [42]: 83.6%

COc1cccc(OCCCN)c1-c1cc(Nc2cnc(C#N)cn2)n[nH]1
viability, T/C (compound 0.01 µM): 5.26% and 13.4% and 12.2% | viability, T/C (compound 0.0316 µM): 4.75% and 10.6% and 9.65% | viability, T/C (compound 0.1 µM): 4.55% and 9.76% and 10.4% | viability, T/C (compound 0.316 µM): 4.05% and 9.54% and 9.26% | viability, T/C (compound 1 µM): 5.58% and 9.9% and 9.33% | IC50 (curve of compound): < 0.00316 µM

CC(C)n1c(=O)n(C)c2cnc3cc(F)c(-c4ccc(OCCCN5CCCCC5)nc4)cc3c21 + COC1C(OC(N)=O)C(O)C(Oc2ccc3c(O)c(NC(=O)c4ccc(O)c(CC=C(C)C)c4)c(=O)oc3c2C)OC1(C)C
IC50 [1]: > 10 µM | IC50 [2]: > 10 µM | IC50 [3]: > 10 µM | IC50 [4]: > 10 µM | IC50 [5]: > 10 µM | IC50 [6]: > 10 µM | viability, T/C [7]: 104% | viability, T/C [8]: 97.4% | viability, T/C [9]: 98.1% | viability, T/C [10]: 93.2% | viability, T/C [11]: 94.3% | viability, T/C [12]: 116% | viability, T/C [13]: 111% | viability, T/C [14]: 87.2% | viability, T/C [15]: 103% | viability, T/C [16]: 101% | viability, T/C [17]: 107% | viability, T/C [18]: 92.2% | viability, T/C [19]: 99.1% | viability, T/C [20]: 98.3% | viability, T/C [21]: 96.1% | viability, T/C [22]: 97.9% | viability, T/C [23]: 114% | viability, T/C [24]: 108% | viability, T/C [25]: 110% | viability, T/C [26]: 93.7% | viability, T/C [27]: 86.6% | viability, T/C [28]: 107% | viability, T/C [29]: 101% | viability, T/C [30]: 101% | viability, T/C [31]: 98.2% | viability, T/C [32]: 95.2% | viability, T/C [33]: 105% | viability, T/C [34]: 106% | viability, T/C [35]: 92.5% | viability, T/C [36]: 102% | viability, T/C [37]: 102% | viability, T/C [38]: 109% | viability, T/C [39]: 115% | viability, T/C [40]: 115% | viability, T/C [41]: 108% | viability, T/C [42]: 89.8%
